Assay results from patent publication US20220160716A1 (SORBONNE UNIVERSITE, priority 2019, published 2022).
Entries after “also recorded” stand apart in the source; their conditions may differ.

Assays:
[1] = target: T1, CDK9/T (Homo sapiens, UniProt P50750); test: Protein kinase catalytic activity assay, CDK9/cyclin T; assay type: biochemical; settings: activator cyclin T; read-out: IC50 of protein kinases, CDK9/T
T1 construct: made in house

[2] = target: CK1; test: Protein kinase catalytic activity assay, CK1; assay type: biochemical; settings: read-out: IC50 of protein kinases, CK1
[3] = target: GSK3 (Homo sapiens, UniProt P49841); test: Protein kinase catalytic activity assay, GSK3; assay type: biochemical; settings: read-out: IC50 of protein kinases, GSK3
[4] = target: T2, ABCB4-WT (Homo sapiens, UniProt P21439); test: ABCB4-mediated phosphatidylcholine secretion, HEK cells expressing ABCB4-WT; assay type: cell-based; settings: for inhibition of ABCB4-WT-mediated PC secretion compared to roscovitine: 10 μM and 25 μM; for log IC50 on the PC secretion activity of ABCB4-WT / IC50: from dose-response curves of FIG. 4C; for IC50: read-out: IC50 on the PC secretion activity of ABCB4-WT
T2 construct: The subcloning of wild type (WT) ABCB4, isoform A (NM_000443.3), into pcDNA3 vector has been described; expressed in transfected cells; host or cells: HEK-293
Procedure: (§1) Cyclosporin A (CsA) was from Santa Cruz Biotechnologies (Dallas, Tex.). […] Each compound was solubilized in dimethylsulfoxide (DMSO) as 1000× concentrated stock solutions in order to treat cells with 5 μM to 100 μM final concentrations, using DMSO as control vehicle at the same dilution (0.1% DMSO for all conditions). The cells were treated 24 hours post-transfection with these drugs during 16 hours, except for the viability assays for which cells were treated during three days. After drug treatment, cells were used for immunoanalyses, cell viability assays or PC secretion assays.
HEK cells were seeded in 0.01% poly-L-lysine (Sigma) pre-coated 6-well plates of 10 cm^2 area per well (1.3×10^6 cells per well). After transient transfection of the empty vector (control), plasmids encoding ABCB4-WT or its variants, cells were incubated during 24 hours at 37° C. in serum-free medium supplemented with 0.5 mM sodium taurocholate (Sigma) and 0.02% fatty acid-free bovine serum albumin (Sigma). Then, the secreted PC was quantified from the collected media using a fluoro-enzymatic assay previously described (12). Each condition was analysed in triplicate, after background subtraction, and results were normalized to the expression levels of ABCB4 determined by immunoblots of the corresponding cell lysates.

[5] = target: T3, ABCB4-I541F (Homo sapiens, UniProt P21439, I541F); test: Canalicular localisation of ABCB4-I541F by indirect immunofluorescence in HepG2 cells; assay type: cell-based; parameters: The subcloning of wild type (WT) ABCB4, isoform A (NM_000443.3), into pcDNA3 vector has been described; expressed in transfected cells; host or cells: HepG2 (immunofluorescence); settings: 16 hours
Procedure: For indirect immunofluorescence, HepG2 cells were grown on glass coverslips and after transfection and treatments, they were fixed and permeabilized during 1 min at −20° C. in ice-cold methanol. Then ABCB4 and ABCC2 were immunolabelled using the mouse monoclonal P3II-26 (IgG2b) and M2I-4 (IgG1) antibodies (Enzo Life Sciences), respectively. […] For each experiment, all images were acquired with constant settings (acquisition time and correction of signal intensities).

[6] = target: ABCB4-I490T (Homo sapiens, UniProt P21439, I490T); test: Canalicular localisation of ABCB4-I490T by indirect immunofluorescence in HepG2 cells; assay type: cell-based; parameters: The subcloning of wild type (WT) ABCB4, isoform A (NM_000443.3), into pcDNA3 vector has been described; expressed in transfected cells; host or cells: HepG2 (immunofluorescence); settings: 25 μM
Procedure: For indirect immunofluorescence, HepG2 cells were grown on glass coverslips and after transfection and treatments, they were fixed and permeabilized during 1 min at −20° C. in ice-cold methanol. Then ABCB4 and ABCC2 were immunolabelled using the mouse monoclonal P3II-26 (IgG2b) and M2I-4 (IgG1) antibodies (Enzo Life Sciences), respectively. AlexaFluor® 555 and AlexaFluor® 488 conjugated isotype-specific secondary antibodies (Thermo Fisher Scientific) and Hoechst 33342 (Thermo Fisher Scientific) were used to label ABCB4, ABCC2 and nuclei, respectively. Images were acquired using an IX83 inverted fluorescence microscope from Olympus (Rungis, France), equipped with a UPLSAPO 60XS2 silicone immersion objective and a Hamamatsu ORCA Flash4.0 digital CMOS camera, and analysed using Olympus CellSens Dimension Desktop version 1.16 and Adobe Photoshop version 8.0.1. For each experiment, all images were acquired with constant settings (acquisition time and correction of signal intensities).

[7] = target: T3, ABCB4-I541F; test: Maturation of ABCB4-I541F by immunoblot in HEK cells; assay type: cell-based; parameters: The subcloning of wild type (WT) ABCB4, isoform A (NM_000443.3), into pcDNA3 vector has been described; expressed in transfected cells; host or cells: HEK-293 (immunoblot, PC secretion); settings: for maturation (mature form) of ABCB4-I541F: HEK cells, 100 μM, 16 hours, immunoblot; for correction of ABCB4-I541F maturation: HEK cells, 5, 10 and 25 μM
Procedure: as §1
Western blots and indirect immunofluorescence were performed as previously described (2, 12). […] Signals were detected with ECL prime western blotting detection reagent (GE Healthcare, Velizy-Villacoublay, France) and quantified in the linear range of detection using ImageJ 1.50i software (U.S. National Institutes of Health, Bethesda, Md.).

[8] = target: ABCB4-L556R (Homo sapiens, UniProt P21439, L556R); test: Maturation of ABCB4-L556R by immunoblot in HEK cells; assay type: cell-based; parameters: The subcloning of wild type (WT) ABCB4, isoform A (NM_000443.3), into pcDNA3 vector has been described; expressed in transfected cells; host or cells: HEK-293 (immunoblot, PC secretion); settings: 5 to 25 μM
Procedure: Western blots and indirect immunofluorescence were performed as previously described (2, 12). […] Saturated membranes were incubated with mouse monoclonal anti-ABCB4 (clone P3II-26; Enzo Life Sciences, Villeurbanne, France) or anti-α-tubulin (clone 1E4C11; ProteinTech, Manchester, United Kingdom) antibodies and then with peroxidase conjugated anti-mouse secondary antibodies (Sigma). Signals were detected with ECL prime western blotting detection reagent (GE Healthcare, Velizy-Villacoublay, France) and quantified in the linear range of detection using ImageJ 1.50i software (U.S. National Institutes of Health, Bethesda, Md.).

T2 sequence (P21439 1-1279 isoform P21439-2): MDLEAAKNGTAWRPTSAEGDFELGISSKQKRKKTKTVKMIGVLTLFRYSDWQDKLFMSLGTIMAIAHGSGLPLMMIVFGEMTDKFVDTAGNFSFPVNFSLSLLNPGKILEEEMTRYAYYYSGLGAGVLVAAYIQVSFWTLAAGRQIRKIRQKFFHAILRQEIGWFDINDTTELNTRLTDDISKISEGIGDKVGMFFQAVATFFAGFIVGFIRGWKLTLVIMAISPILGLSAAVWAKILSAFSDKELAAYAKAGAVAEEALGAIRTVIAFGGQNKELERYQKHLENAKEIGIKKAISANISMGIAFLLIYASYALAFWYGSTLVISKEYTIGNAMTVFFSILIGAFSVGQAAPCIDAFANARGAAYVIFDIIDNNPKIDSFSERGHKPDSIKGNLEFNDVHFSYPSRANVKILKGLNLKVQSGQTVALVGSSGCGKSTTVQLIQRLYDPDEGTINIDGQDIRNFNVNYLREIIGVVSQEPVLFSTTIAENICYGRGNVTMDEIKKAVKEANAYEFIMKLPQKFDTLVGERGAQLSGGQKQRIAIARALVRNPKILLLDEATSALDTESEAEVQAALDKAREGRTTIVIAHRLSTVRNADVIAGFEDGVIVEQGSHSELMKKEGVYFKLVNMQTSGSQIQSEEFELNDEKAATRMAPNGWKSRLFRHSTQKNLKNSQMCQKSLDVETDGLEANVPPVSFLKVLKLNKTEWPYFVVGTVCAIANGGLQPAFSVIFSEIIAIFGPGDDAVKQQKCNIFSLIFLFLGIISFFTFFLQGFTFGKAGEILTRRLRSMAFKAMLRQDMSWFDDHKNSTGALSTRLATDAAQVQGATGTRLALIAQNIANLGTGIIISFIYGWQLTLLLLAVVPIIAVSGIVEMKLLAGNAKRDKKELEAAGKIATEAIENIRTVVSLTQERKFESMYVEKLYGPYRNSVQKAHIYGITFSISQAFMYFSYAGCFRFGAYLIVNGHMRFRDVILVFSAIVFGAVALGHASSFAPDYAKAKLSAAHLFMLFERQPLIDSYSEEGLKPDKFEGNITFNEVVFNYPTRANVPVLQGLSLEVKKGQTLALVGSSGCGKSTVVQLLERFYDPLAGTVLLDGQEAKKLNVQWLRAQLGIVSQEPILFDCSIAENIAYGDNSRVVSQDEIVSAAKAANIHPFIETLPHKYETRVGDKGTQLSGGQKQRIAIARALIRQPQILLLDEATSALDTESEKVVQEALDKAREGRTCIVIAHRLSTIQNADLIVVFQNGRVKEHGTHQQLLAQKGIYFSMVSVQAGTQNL
T3 sequence (P21439 1-1279 isoform P21439-2 I541F): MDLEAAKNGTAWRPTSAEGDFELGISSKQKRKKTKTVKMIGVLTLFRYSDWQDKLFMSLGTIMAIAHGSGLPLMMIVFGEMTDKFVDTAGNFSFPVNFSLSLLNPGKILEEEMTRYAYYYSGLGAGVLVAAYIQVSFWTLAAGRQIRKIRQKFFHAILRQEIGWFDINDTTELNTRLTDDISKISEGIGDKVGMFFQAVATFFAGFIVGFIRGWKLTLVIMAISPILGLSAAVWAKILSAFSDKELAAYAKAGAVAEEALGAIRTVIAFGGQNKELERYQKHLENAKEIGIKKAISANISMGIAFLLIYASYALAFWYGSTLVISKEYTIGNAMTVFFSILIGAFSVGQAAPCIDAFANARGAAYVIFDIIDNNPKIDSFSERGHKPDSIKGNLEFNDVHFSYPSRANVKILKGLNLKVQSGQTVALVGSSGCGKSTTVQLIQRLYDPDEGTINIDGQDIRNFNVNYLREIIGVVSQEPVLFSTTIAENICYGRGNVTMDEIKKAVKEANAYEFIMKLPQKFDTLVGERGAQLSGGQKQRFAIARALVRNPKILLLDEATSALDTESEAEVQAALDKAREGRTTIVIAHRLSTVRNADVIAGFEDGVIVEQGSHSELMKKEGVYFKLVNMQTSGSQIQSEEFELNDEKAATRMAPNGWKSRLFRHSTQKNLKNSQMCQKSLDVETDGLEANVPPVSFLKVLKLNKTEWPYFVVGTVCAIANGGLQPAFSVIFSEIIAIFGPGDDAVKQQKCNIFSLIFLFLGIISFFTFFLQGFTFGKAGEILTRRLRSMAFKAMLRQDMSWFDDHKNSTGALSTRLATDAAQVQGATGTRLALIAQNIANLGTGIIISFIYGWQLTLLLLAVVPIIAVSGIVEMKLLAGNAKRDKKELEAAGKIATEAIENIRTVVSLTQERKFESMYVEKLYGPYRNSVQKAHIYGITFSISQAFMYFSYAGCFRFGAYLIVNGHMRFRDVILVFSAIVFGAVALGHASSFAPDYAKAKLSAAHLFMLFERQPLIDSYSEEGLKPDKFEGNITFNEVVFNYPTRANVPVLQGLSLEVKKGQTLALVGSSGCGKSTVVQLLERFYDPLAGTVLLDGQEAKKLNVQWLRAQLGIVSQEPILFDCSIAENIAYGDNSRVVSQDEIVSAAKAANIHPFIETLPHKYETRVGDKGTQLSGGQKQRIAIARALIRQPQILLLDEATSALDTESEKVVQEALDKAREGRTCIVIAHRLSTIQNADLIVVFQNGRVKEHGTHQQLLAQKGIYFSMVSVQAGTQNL
Sequence of ABCB4-L556R (P21439 1-1279 isoform P21439-2 L556R): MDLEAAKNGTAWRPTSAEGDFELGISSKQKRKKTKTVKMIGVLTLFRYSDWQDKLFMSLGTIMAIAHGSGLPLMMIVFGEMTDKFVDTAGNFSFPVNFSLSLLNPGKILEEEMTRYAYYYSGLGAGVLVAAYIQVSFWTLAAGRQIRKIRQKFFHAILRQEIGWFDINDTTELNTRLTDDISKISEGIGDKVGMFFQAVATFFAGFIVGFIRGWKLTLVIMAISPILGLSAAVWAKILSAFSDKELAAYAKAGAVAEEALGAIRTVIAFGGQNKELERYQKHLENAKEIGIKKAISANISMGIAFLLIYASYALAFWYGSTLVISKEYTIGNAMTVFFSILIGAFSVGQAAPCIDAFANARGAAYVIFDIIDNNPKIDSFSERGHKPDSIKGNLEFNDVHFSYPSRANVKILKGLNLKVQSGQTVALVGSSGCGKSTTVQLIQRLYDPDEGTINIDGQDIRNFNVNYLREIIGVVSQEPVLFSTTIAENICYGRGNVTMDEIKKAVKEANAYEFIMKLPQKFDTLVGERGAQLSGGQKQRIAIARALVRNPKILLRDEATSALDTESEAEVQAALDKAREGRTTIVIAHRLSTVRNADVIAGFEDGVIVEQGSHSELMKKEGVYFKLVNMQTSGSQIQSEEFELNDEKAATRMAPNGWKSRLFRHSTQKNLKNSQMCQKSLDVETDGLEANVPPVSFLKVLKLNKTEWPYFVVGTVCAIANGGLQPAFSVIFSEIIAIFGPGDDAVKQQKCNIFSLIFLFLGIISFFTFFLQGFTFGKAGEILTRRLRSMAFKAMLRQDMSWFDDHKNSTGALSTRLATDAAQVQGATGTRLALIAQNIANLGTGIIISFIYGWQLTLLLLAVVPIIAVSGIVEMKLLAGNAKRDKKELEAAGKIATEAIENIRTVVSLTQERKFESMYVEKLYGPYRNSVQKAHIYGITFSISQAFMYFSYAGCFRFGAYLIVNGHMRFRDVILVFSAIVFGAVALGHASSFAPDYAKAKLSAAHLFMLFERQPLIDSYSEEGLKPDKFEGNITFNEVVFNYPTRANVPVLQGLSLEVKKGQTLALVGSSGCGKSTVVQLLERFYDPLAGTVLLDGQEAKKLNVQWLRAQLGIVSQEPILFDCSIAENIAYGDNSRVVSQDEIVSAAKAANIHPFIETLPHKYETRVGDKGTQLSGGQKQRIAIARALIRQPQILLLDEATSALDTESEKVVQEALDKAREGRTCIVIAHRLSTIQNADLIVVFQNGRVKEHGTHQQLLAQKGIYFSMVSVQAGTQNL
Sequence of GSK3 (P49841 whole entry): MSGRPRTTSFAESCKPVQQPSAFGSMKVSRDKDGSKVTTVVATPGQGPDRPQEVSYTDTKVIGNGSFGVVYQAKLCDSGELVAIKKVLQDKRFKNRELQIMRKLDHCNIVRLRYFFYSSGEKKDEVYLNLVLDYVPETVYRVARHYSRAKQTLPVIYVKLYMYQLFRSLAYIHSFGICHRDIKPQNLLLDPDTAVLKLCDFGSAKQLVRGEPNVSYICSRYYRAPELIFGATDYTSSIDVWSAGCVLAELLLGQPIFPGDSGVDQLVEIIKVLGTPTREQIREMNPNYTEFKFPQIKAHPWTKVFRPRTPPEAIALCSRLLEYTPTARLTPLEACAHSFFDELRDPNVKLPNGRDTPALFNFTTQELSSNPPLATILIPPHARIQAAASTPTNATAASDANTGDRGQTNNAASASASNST

SMILES	IC50 [1] [µM]	IC50 [2] [µM]	IC50 [3] [µM]	inhibition of ABCB4-WT-mediated PC secretion compared to roscovitine [4]	log IC50 on the PC secretion activity of ABCB4-WT [4]	IC50 [4] [µM]	relocalisation of ABCB4-I541F at bile canaliculi ([5]; 25 μM)	relocalisation of ABCB4-I541F at bile canaliculi ([5]; 100 μM)	relocalisation of ABCB4-I490T at bile canaliculi [6]	maturation (mature form) of ABCB4-I541F [7]	correction of ABCB4-I541F maturation [7]	rescue of the maturation of ABCB4-L556R [8]
CC[C@@H](Nc1nc(NCc2cccc(F)c2)c2ncn(C3CCCC3)c2n1)C(=O)O [MRT2-235]	7	7	> 10	less inhibitory than the original molecule	−4.678	21	partial relocalisation of ABCB4-I541F at bile canaliculi	partial relocalisation of ABCB4-I541F at bile canaliculi	partially relocalised at bile canaliculi	significantly increase the expression of a mature form of ABCB4-I541F; also recorded: significant rescue of the maturation	dose-dependent correction of ABCB4-I541F maturation	dose-dependent rescue of the maturation
CC[C@@H](Nc1nc(NCc2cccc(Cl)c2)c2ncn(C3CCCC3)c2n1)C(=O)O [MRT2-237]	9	3.33	> 10	less inhibitory than the original molecule	−4.533	29.3	partial relocalisation of ABCB4-I541F at bile canaliculi	partial relocalisation of ABCB4-I541F at bile canaliculi	partially relocalised at bile canaliculi	significantly increase the expression of a mature form of ABCB4-I541F; also recorded: significant rescue of the maturation	dose-dependent correction of ABCB4-I541F maturation	dose-dependent rescue of the maturation
CC[C@@H](Nc1nc(NCc2ccc(Cl)c(F)c2)c2ncn(C3CCCC3)c2n1)C(=O)O [MRT2-243]	5	6.1	> 10	less inhibitory than the original molecule	−4.754	17.6	partial relocalisation of ABCB4-I541F at bile canaliculi	partial relocalisation of ABCB4-I541F at bile canaliculi	partially relocalised at bile canaliculi	significantly increase the expression of a mature form of ABCB4-I541F; also recorded: significant rescue of the maturation	dose-dependent correction of ABCB4-I541F maturation	dose-dependent rescue of the maturation
